Measured values as given in ChEMBL document CHEMBL3112456, “Dual inhibition of HCV and HIV by ring-expanded nucleosides containing the 5:7-fused imidazo[4,5-e][1,3]diazepine ring system. In vitro results and implications” (Bioorg Med Chem Lett, 2014).
In brackets after ≈: the same amount, converted by molar mass. Activity calls are given as the source filed them. The calls are words filed in the database; no cut-off is given here.

Columns and labels:
Hepatitis C virus [1] = experiment: Antiviral activity against HCV infected in human Huh7 cells assessed as reduction in RNA level by luciferase reporter gene assay relative to control; assay type: functional
[2] = tested on: Human immunodeficiency virus; experiment: Antiviral activity against HIV; assay type: functional, organism-based
Hepacivirus hominis [3] = experiment: Inhibition of helicase activity of HCV NTPase/helicase using radio-labelled double-stranded DNA as substrate up to 300 ug/ml after 30 mins
Hepacivirus hominis [4] = experiment: Inhibition of helicase activity of HCV NTPase/helicase using radio-labelled double-stranded RNA as substrate up to 300 ug/ml after 30 mins
[5] = Selectivity index, ratio of beta-actin level in human HuH7 cells to viral RNA level in HCV infected in human Huh7 cells; set-up: species or system Huh-7
Huh-7 = experiment: Cytotoxicity against human HuH7 cells assessed as beta-actin levels relative to control; assay type: cell-based
Hepacivirus hominis [6] = experiment: Inhibition of NTPase activity of HCV NTPase/helicase using 105 microM gamma-[32P]ATP as substrate up to 0.7 mM after 30 mins
Hepacivirus hominis [7] = experiment: Inhibition of NTPase activity of HCV NTPase/helicase using 1 x 10^-5 M gamma-[32P]ATP as substrate up to 0.7 mM after 30 mins
Hepacivirus hominis [8] = experiment: Inhibition of helicase activity of HCV NTPase/helicase using radio-labelled double-stranded RNA as substrate after 30 mins
[9] = Cytotoxicity against human BM4-5 cells after 5 days by Neutral Red dye assay; assay type: cell-based; conditions: bm4-5, 120 h
Hepatitis C virus [10] = experiment: Antiviral activity against HCV genotype 1b infected in human BM4-5 cells reduction in RNA level after 5 days by luciferase reporter gene assay relative to control; assay type: functional, organism-based, Hepacivirus hominis; conditions: BM4-5, 120 h
[11] = Inhibition of helicase activity of HCV NTPase/helicase using radio-labelled double-stranded DNA as substrate after 30 mins; set-up: species or system Hepacivirus hominis

Compound: CCCCCCCCCCCCCCCCCCN
- Activity (Hepatitis C virus [1]; Hepacivirus hominis, Huh-7): inactive
- Activity [2]: inactive

Compound: CCCCCCCCNc1nc(=O)c2ncn([C@@H]3O[C@H](CO)[C@@H](O)[C@H]3O)c2c(=O)[nH]1
- inhibition (Hepacivirus hominis [3]): inactive
- inhibition (Hepacivirus hominis [4]): inactive

Compound: CCCCCCCCCCNc1nc(=O)c2ncn([C@@H]3C[C@H](O)[C@@H](CO)O3)c2c(=O)[nH]1
- inhibition (Hepacivirus hominis [3]): inactive
- inhibition (Hepacivirus hominis [4]): inactive

Compound: CCCCCCCCCCCCNc1nc(=O)c2ncn([C@@H]3O[C@H](CO)[C@@H](O)[C@H]3O)c2c(=O)[nH]1
- inhibition (Hepacivirus hominis [3]): inactive
- inhibition (Hepacivirus hominis [4]): inactive

Compound: NC(=O)c1ncn([C@@H]2O[C@H](CO)[C@@H](O)[C@H]2O)n1 [RIBAVIRIN]
- Selectivity Index [5]: 0.14
- Activity (Hepatitis C virus [1]): 89%
- Activity (Huh-7): 12%

Compound: CCCCCCCCNc1nc(=O)c2ncn([C@@H]3C[C@H](O)[C@@H](CO)O3)c2c(=O)[nH]1
- inhibition (Hepacivirus hominis [3]): inactive
- inhibition (Hepacivirus hominis [4]): inactive

Compound: CCCCCCCCCCCCCCNc1nc(=O)c2ncn([C@@H]3C[C@H](O)[C@@H](CO)O3)c2c(=O)[nH]1
- inhibition (Hepacivirus hominis [3]): inactive
- inhibition (Hepacivirus hominis [4]): inactive

Compound: CCCCCCCCCCCCCCCCCCNc1nc(=O)c2ncn([C@@H]3O[C@H](CO)[C@@H](O)[C@H]3O)c2c(=O)[nH]1
- inhibition (Hepacivirus hominis [6]): inactive
- inhibition (Hepacivirus hominis [7]): inactive
- inhibition (Hepacivirus hominis [8]): Active
- Activity [9]: Non-toxic
- IC50 (Hepatitis C virus [10]): 16 µM
- Selectivity Index [5]: 10.89
- IC50 [11]: 6 µg/mL (≈ 10.6 µM)
- Activity (Hepatitis C virus [1]): 9%
- Activity (Huh-7): 98%

Compound: CCCCCCCCCCCCCCCCNc1nc(=O)c2ncn([C@@H]3O[C@H](CO)[C@@H](O)[C@H]3O)c2c(=O)[nH]1
- inhibition (Hepacivirus hominis [3]): inactive
- inhibition (Hepacivirus hominis [4]): inactive

Compound: CCCCCCCCCCCCCCNc1nc(=O)c2ncn([C@@H]3O[C@H](CO)[C@@H](O)[C@H]3O)c2c(=O)[nH]1
- inhibition (Hepacivirus hominis [3]): inactive
- inhibition (Hepacivirus hominis [4]): inactive

Compound: CCCCCCCCCCCCCCCCCCNc1nc(=O)c2ncn([C@@H]3C[C@H](O)[C@@H](CO)O3)c2c(=O)[nH]1
- inhibition (Hepacivirus hominis [6]): inactive
- inhibition (Hepacivirus hominis [7]): inactive
- inhibition (Hepacivirus hominis [8]): Active
- Activity [9]: Non-toxic
- IC50 (Hepatitis C virus [10]): 18 µM
- Selectivity Index [5]: 9.9
- IC50 [11]: 5.5 µg/mL (≈ 10 µM)
- Activity (Hepatitis C virus [1]): 10%
- Activity (Huh-7): 99%

Compound: CCCCCCCCCCNc1nc(=O)c2ncn([C@@H]3O[C@H](CO)[C@@H](O)[C@H]3O)c2c(=O)[nH]1
- inhibition (Hepacivirus hominis [3]): inactive
- inhibition (Hepacivirus hominis [4]): inactive

Compound: CCCCCCCCCCCCCCN
- Activity (Hepatitis C virus [1]; Hepacivirus hominis, Huh-7): inactive
- Activity [2]: inactive

Compound: CCCCCCCCCCCCCCCCNc1nc(=O)c2ncn([C@@H]3C[C@H](O)[C@@H](CO)O3)c2c(=O)[nH]1
- inhibition (Hepacivirus hominis [3]): inactive
- inhibition (Hepacivirus hominis [4]): inactive
